Results published in patent publication US6458978B1, “Fluorous phosphines and process for their preparation” (Atofina Vlissingen B.V., priority 1998, dated 2002).

Experiment: Solubility of dppe and dppe derivatives G{m,x} in perfluorinated and non-fluorinated solvents
Assay type: physicochemical
Settings: for solubility at room temperature, FC-72: FC-72: mixture of perfluorinated hexanes

| solubility at room temperature, THF | solubility at room temperature, toluene | solubility at room temperature, FC-72 | SMILES |
| --- | --- | --- | --- |
| − (−: <0.01 g/ml) | − (−: <0.01 g/ml) | + (+: >0.1 g/ml) | FC(F)(F)C(F)(F)C(F)(F)C(F)(F)C(F)(F)C(F)(F)CC[Si](CCC(F)(F)C(F)(F)C(F)(F)C(F)(F)C(F)(F)C(F)(F)F)(CCC(F)(F)C(F)(F)C(F)(F)C(F)(F)C(F)(F)C(F)(F)F)c1ccc(P(CCP(c2ccc([Si](CCC(F)(F)C(F)(F)C(F)(F)C(F)(F)C(F)(F)C(F)(F)F)(CCC(F)(F)C(F)(F)C(F)(F)C(F)(F)C(F)(F)C(F)(F)F)CCC(F)(F)C(F)(F)C(F)(F)C(F)(F)C(F)(F)C(F)(F)F)cc2)c2ccc([Si](CCC(F)(F)C(F)(F)C(F)(F)C(F)(F)C(F)(F)C(F)(F)F)(CCC(F)(F)C(F)(F)C(F)(F)C(F)(F)C(F)(F)C(F)(F)F)CCC(F)(F)C(F)(F)C(F)(F)C(F)(F)C(F)(F)C(F)(F)F)cc2)c2ccc([Si](CCC(F)(F)C(F)(F)C(F)(F)C(F)(F)C(F)(F)C(F)(F)F)(CCC(F)(F)C(F)(F)C(F)(F)C(F)(F)C(F)(F)C(F)(F)F)CCC(F)(F)C(F)(F)C(F)(F)C(F)(F)C(F)(F)C(F)(F)F)cc2)cc1 [G{3,6}] |
| + (+: >0.1 g/ml) | + (+: >0.1 g/ml) | − (−: <0.01 g/ml) | C[Si](C)(CCC(F)(F)C(F)(F)C(F)(F)C(F)(F)C(F)(F)C(F)(F)F)c1ccc(P(CCP(c2ccc([Si](C)(C)CCC(F)(F)C(F)(F)C(F)(F)C(F)(F)C(F)(F)C(F)(F)F)cc2)c2ccc([Si](C)(C)CCC(F)(F)C(F)(F)C(F)(F)C(F)(F)C(F)(F)C(F)(F)F)cc2)c2ccc([Si](C)(C)CCC(F)(F)C(F)(F)C(F)(F)C(F)(F)C(F)(F)C(F)(F)F)cc2)cc1 [G{1,6}] |
| − (−: <0.01 g/ml) | − (−: <0.01 g/ml) | − (−: <0.01 g/ml) | C[Si](C)(CCC(F)(F)C(F)(F)C(F)(F)C(F)(F)C(F)(F)C(F)(F)C(F)(F)C(F)(F)F)c1ccc(P(CCP(c2ccc([Si](C)(C)CCC(F)(F)C(F)(F)C(F)(F)C(F)(F)C(F)(F)C(F)(F)C(F)(F)C(F)(F)F)cc2)c2ccc([Si](C)(C)CCC(F)(F)C(F)(F)C(F)(F)C(F)(F)C(F)(F)C(F)(F)C(F)(F)C(F)(F)F)cc2)c2ccc([Si](C)(C)CCC(F)(F)C(F)(F)C(F)(F)C(F)(F)C(F)(F)C(F)(F)C(F)(F)C(F)(F)F)cc2)cc1 [G{1,8}] |
